The text below walks through data of patent US20070117864A1, “Composition for preventing and treating hepatoma” (Tokyo University of Agr. & Tech. TLO Co., Ltd., priority 2003, published 2007).

Assay [1] can be described thus: serum lipid levels in hepatoma-bearing rats. The assay is classed as in vivo, rat. Conditions: for Serum lipid level (VLDL + LDL)-Cholesterol (B): difference between T-Ch and HDL-Ch; for Serum lipid level (VLDL + LDL)-Cholesterol (B) / AI (B/A), atherogenic index / Serum lipid level HDL-Cholesterol (A) / Serum lipid level Total Cholesterol / Serum lipid level Triglyceride: mean ± SEM of 11 rats. The procedure:
Male Donryu rats of four weeks old were purchased from NRC Haruna, Gumma, Japan, and were preliminarily fed for 6 days in quintuple cages in a room with a controlled environment with light period of 8:00 to 20:00, room temperature of 22±1° C., and relative humidity of 60±5%. For the first 3 days, the animals were fed ad libitum with a stock pellet diet (CE-2; CLEA Japan, Tokyo), and for the next 3 days, they were fed a basal diet containing 20% milk casein (20C) (Table 1) ad libitum together with tap water in a glass container. Following the completion of this preparatory raising, the rats were divided into three groups (11 animals per group) with equal average body weights of the respective groups were equal, and 1.0×10^7 of AH109A cells suspended in PBS (−) were transplanted in the back of all the rats. From the time immediately after transplantation, in the respective experimental groups, the animals were fed the experimental diets shown in Table 2. During the experimental period, the body weight, food intake and solid tumor size (sum of length, width and height) were measured everyday. On the day that the animals were killed, animals were deprived of experimental diets at 9:00, but freely given water until they were killed 4 hours later. Blood was collected from carotid, and the liver and solid tumors were excised. The collected blood was allowed to stand for approximately 2 hours at room temperature, and then centrifuged for 10 minutes at 3000 rpm (1750×g), 4° C., to obtain serum. This blood serum was frozen and stored at −20° C. The livers and solid tumors were washed with physiological saline, blotted on filter paper, and weighed. Furthermore, feces from the 19th to 21st days after transplantation were collected, and these feces were frozen and stored at −20° C. for the measurement of the amounts of steroids excreted from the body. Serum cholesterol (Ch) and triglyceride (TG) concentration was measured. Total cholesterol (T-Ch) level, the high-density-lipoprotein (HDL-Ch) level (which is the supernatant fraction obtained by precipitating very-low-density-lipoprotein+low-density-lipoprotein ((VLDL+LDL)-Ch fractions) by the precipitation method using phosphotungstic acid were measured. The (VLDL+LDL)-Ch level was taken as the difference between the T-Ch and the HDL-Ch levels. Atherogenic index (AI: (VLDL+LDL)-Ch/HDL-Ch ratio) was calculated as an index of atherogenesis.

The nature of assay [2]: liver lipid levels in hepatoma-bearing rats. Type of assay: in vivo, rat. The settings on record: mean ± SEM of 11 rats. The procedure:
Male Donryu rats of four weeks old were purchased from NRC Haruna, Gumma, Japan, and were preliminarily fed for 6 days in quintuple cages in a room with a controlled environment with light period of 8:00 to 20:00, room temperature of 22±1° C., and relative humidity of 60±5%. For the first 3 days, the animals were fed ad libitum with a stock pellet diet (CE-2; CLEA Japan, Tokyo), and for the next 3 days, they were fed a basal diet containing 20% milk casein (20C) (Table 1) ad libitum together with tap water in a glass container. Following the completion of this preparatory raising, the rats were divided into three groups (11 animals per group) with equal average body weights of the respective groups were equal, and 1.0×10^7 of AH109A cells suspended in PBS (−) were transplanted in the back of all the rats. From the time immediately after transplantation, in the respective experimental groups, the animals were fed the experimental diets shown in Table 2.
During the experimental period, the body weight, food intake and solid tumor size (sum of length, width and height) were measured everyday. On the day that the animals were killed, animals were deprived of experimental diets at 9:00, but freely given water until they were killed 4 hours later. Blood was collected from carotid, and the liver and solid tumors were excised. The collected blood was allowed to stand for approximately 2 hours at room temperature, and then centrifuged for 10 minutes at 3000 rpm (1750×g), 4° C., to obtain serum. This blood serum was frozen and stored at −20° C. The livers and solid tumors were washed with physiological saline, blotted on filter paper, and weighed. Furthermore, feces from the 19th to 21st days after transplantation were collected, and these feces were frozen and stored at −20° C. for the measurement of the amounts of steroids excreted from the body.
Total lipids were extracted from the liver for the measurement of lipid levels by the method of Folch et al. (FOLCH J, LEES M, SLOAN-STANLEY G H, A simple method for the isolation and purification of total lipids from animal tissues, J. Biol. Chem. 226: 497-509, 1957). Approximately 0.5 g of liver tissue was weighed out, this tissue was homogenized using a Polytron homogenizer (Type PT10/35, Kinematica, Switzerland) in 5 ml of methanol; then, 10 ml of chloroform was added and mixed, the resulting preparation was allowed to stand overnight, and then filtered. […]
The Ch content was measured by the Zak method (Zak B., Simple rapid microtechnic for serum total cholesterol, Am. J. Clin. Path. 27, 583-588, 1957). […] The resulting mixture was agitated and this preparation was allowed to stand until cool; then, the absorbance at 560 nm thereof was measured with Ch as a standard. […]

[3] abbreviates: ENL diet groups versus control diet group.

Marks after values point to notes of the source that are not given here.

For the compound `O=C1OCC(Cc2cccc(O)c2)C1Cc1cccc(O)c1` (centres unmarked) [Enterolactone, enterolactone], in assay [1] (setting [3]), the “(VLDL+LDL)-Ch in the blood serum” value was “decreased significantly in a dose-dependent manner” and the “AI value, ratio of (VLDL+LDL)-Ch to HDL-Ch” value is recorded as “tendency to decrease”. In addition, in assay [1] (ENL diet groups versus control diet group, not significant), the “HDL-Ch in the blood serum” value is reported as “tendency increase”. Also, in assay [1] (diet 10 ppm), the “Serum lipid level (VLDL + LDL)-Cholesterol (B)” value is given as 0.68 ± 0.12^b mmol/L; the “AI (B/A), atherogenic index” value is reported as 0.48 ± 0.09; the “Serum lipid level HDL-Cholesterol (A)” value is recorded as 1.45 ± 0.07 mmol/L; the “Serum lipid level Total Cholesterol” value amounted to 2.13 ± 0.14 mmol/L. In addition, the “Serum lipid level Triglyceride” value in assay [1] (diet 10 ppm) was 0.98 ± 0.06 mmol/L. Besides, in assay [1] (diet 100 ppm), the “Serum lipid level (VLDL + LDL)-Cholesterol (B)” value is listed as 0.67 ± 0.08^b mmol/L; the “AI (B/A), atherogenic index” value was determined as 0.41 ± 0.05; the “Serum lipid level HDL-Cholesterol (A)” value amounted to 1.63 ± 0.06 mmol/L; the “Serum lipid level Total Cholesterol” value stood at 2.30 ± 0.12 mmol/L. In addition, the “Serum lipid level Triglyceride” value in assay [1] (diet 100 ppm) is recorded as 0.93 ± 0.06 mmol/L. For the same compound, in assay [2] (diet 10 ppm), the “Liver lipid level Total cholesterol” value is reported as 5.15 ± 0.43 μmol/g liver and the “Liver lipid level Triglyceride” value amounted to 43.8 ± 3.83 μmol/g liver. Moreover, in assay [2] (diet 100 ppm), the “Liver lipid level Total cholesterol” value was found to be 5.47 ± 0.40 μmol/g liver and the “Liver lipid level Triglyceride” value worked out at 42.8 ± 7.05 μmol/g liver.
